# Data taken from patent publication US10405547B2, “Substituted cyclic amides as herbicides” (FMC Corporation, priority 2015, dated 2019).
# Experiments:
# Assay type in all cases: in vivo
# [1] = system: pigweed (Amaranthus retroflexus); assay: Test A postemergence, pigweed; settings: visual injury, 0 to 100 scale (0 no effect, 100 complete control), approximately 10 days
# Outline: (§1)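 Visual injury scores (0 no effect to 100 complete control) taken about 10 days after treatment, relative to untreated plants. Treatments were directed soil spray at planting for preemergence, or foliar application to one- to two-leaf plants (2-10 cm) for postemergence, with surfactant-containing formulations in loam–sand pots.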
# [2] = system: barnyardgrass (Echinochloa crus-galli); assay: Test A postemergence, barnyardgrass; settings: visual injury, 0 to 100 scale (0 no effect, 100 complete control), approximately 10 days
# Outline: as §1
# [3] = system: barnyardgrass (Echinochloa crus-galli); assay: Test A preemergence, barnyardgrass; settings: 0 to 100 scale (0 no effect, 100 complete control)
# Outline: as §1
# [4] = system: foxtail, giant (Setaria faberii); assay: Test A preemergence, giant foxtail; settings: 0 to 100 scale (0 no effect, 100 complete control)
# Outline: as §1
# [5] = system: barnyardgrass (Echinochloa crus-galli); assay: Test B flooded paddy test, barnyardgrass; settings: 250 g ai/ha, applied to paddy water, visual rating after 13 to 15 days, scale 0 (no effect) to 100 (complete control)
# Source text: (§2) At time of treatment, test pots were flooded to 3 cm above the soil surface, treated by application of test compounds directly to the paddy water, and then maintained at that water depth for the duration of the test. Treated plants and controls were maintained in a greenhouse for 13 to 15 days, after which time all species were compared to controls and visually evaluated. […] A dash (-) response means no test result.
# [6] = system: ragweed (common ragweed, Ambrosia elatior); assay: Test A preemergence, ragweed; settings: 0 to 100 scale (0 no effect, 100 complete control)
# Outline: as §1
# [7] = system: foxtail, giant (Setaria faberii); assay: Test A postemergence, giant foxtail; settings: visual injury, 0 to 100 scale (0 no effect, 100 complete control), approximately 10 days
# Outline: as §1
# [8] = system: blackgrass (Alopecurus myosuroides); assay: Test A postemergence, blackgrass; settings: visual injury, 0 to 100 scale (0 no effect, 100 complete control), approximately 10 days
# Outline: as §1
# rice (Oryza sativa) = assay: Test B flooded paddy test, rice; settings: 250 g ai/ha, applied to paddy water, visual rating after 13 to 15 days, scale 0 (no effect) to 100 (complete control)
# Source text: as §2
# [9] = system: ryegrass, Italian (Lolium multiflorum); assay: Test A preemergence, Italian ryegrass; settings: 0 to 100 scale (0 no effect, 100 complete control)
# Outline: as §1
# [10] = system: pigweed (Amaranthus retroflexus); assay: Test A preemergence, pigweed; settings: 0 to 100 scale (0 no effect, 100 complete control)
# Outline: as §1
# [11] = system: ducksalad (Heteranthera limosa); assay: Test B flooded paddy test, ducksalad; settings: 250 g ai/ha, applied to paddy water, visual rating after 13 to 15 days, scale 0 (no effect) to 100 (complete control)
# Source text: as §2
# [12] = system: galium (catchweed bedstraw, Galium aparine); assay: Test A postemergence, galium; settings: visual injury, 0 to 100 scale (0 no effect, 100 complete control), approximately 10 days
# Outline: as §1
# corn (Zea mays) = assay: Test A postemergence, corn; settings: visual injury, 0 to 100 scale (0 no effect, 100 complete control), approximately 10 days
# Outline: as §1
# [13] = system: ryegrass, Italian (Lolium multiflorum); assay: Test A postemergence, Italian ryegrass; settings: visual injury, 0 to 100 scale (0 no effect, 100 complete control), approximately 10 days
# Outline: as §1
# [14] = system: sedge, umbrella (small-flower umbrella sedge, Cyperus difformis); assay: Test B flooded paddy test, umbrella sedge; settings: 250 g ai/ha, applied to paddy water, visual rating after 13 to 15 days, scale 0 (no effect) to 100 (complete control)
# Source text: as §2
# kochia (Kochia scoparia) [15] = assay: Test A preemergence, kochia; settings: 0 to 100 scale (0 no effect, 100 complete control)
# Outline: as §1
# [16] = system: ragweed (common ragweed, Ambrosia elatior); assay: Test A postemergence, ragweed; settings: visual injury, 0 to 100 scale (0 no effect, 100 complete control), approximately 10 days
# Outline: as §1
# [17] = system: wheat (Triticum aestivum); assay: Test A postemergence, wheat; settings: visual injury, 0 to 100 scale (0 no effect, 100 complete control), approximately 10 days
# Outline: as §1
# kochia (Kochia scoparia) [18] = assay: Test A postemergence, kochia; settings: visual injury, 0 to 100 scale (0 no effect, 100 complete control), approximately 10 days
# Outline: as §1
SMILES,"Plant response rating, Pigweed ([1]; 125 g ai/ha)","Plant response rating, Pigweed ([1]; 500 g ai/ha)","Plant response rating, Barnyardgrass ([2]; 125 g ai/ha)","Plant response rating, Barnyardgrass ([2]; 500 g ai/ha)","Plant response rating, Barnyardgrass ([3]; 125 g ai/ha)","Plant response rating, Barnyardgrass ([3]; 500 g ai/ha)","Plant response rating, Foxtail, Giant ([4]; 125 g ai/ha)","Plant response rating, Foxtail, Giant ([4]; 500 g ai/ha)","Plant response rating, Ragweed ([6]; 125 g ai/ha)","Plant response rating, Ragweed ([6]; 500 g ai/ha)","Plant response rating, Foxtail, Giant ([7]; 125 g ai/ha)","Plant response rating, Foxtail, Giant ([7]; 500 g ai/ha)","Plant response rating, Blackgrass ([8]; 125 g ai/ha)","Plant response rating, Blackgrass ([8]; 500 g ai/ha)","Plant response rating, Ryegrass, Italian ([9]; 125 g ai/ha)","Plant response rating, Ryegrass, Italian ([9]; 500 g ai/ha)","Plant response rating, Pigweed ([10]; 125 g ai/ha)","Plant response rating, Pigweed ([10]; 500 g ai/ha)","Plant response rating, Galium ([12]; 125 g ai/ha)","Plant response rating, Galium ([12]; 500 g ai/ha)",other results
"CN1CC(c2cccc(Sc3ccccc3)c2)C(C(=O)Nc2ccccc2F)C1=O (single isomer, unassigned) [Compound 50]",0,30,0,30,0,40,90,90,0,30,50,70,0,0,0,0,20,20,0,40,"Plant response rating, Barnyardgrass (Flood) [5]: 0; Plant response rating, Rice (Flood) (rice (Oryza sativa)): 0; Plant response rating, Ducksalad (Flood) [11]: 70; Plant response rating, Corn (corn (Zea mays); 125 g ai/ha): 0; Plant response rating, Corn (corn (Zea mays); 500 g ai/ha): 20; Plant response rating, Ryegrass, Italian ([13]; 125 g ai/ha): 0; Plant response rating, Ryegrass, Italian ([13]; 500 g ai/ha): 0; Plant response rating, Sedge, Umbrella (Flood) [14]: 0; Plant response rating, Kochia (kochia (Kochia scoparia) [15]; 125 g ai/ha): 0; Plant response rating, Kochia (kochia (Kochia scoparia) [15]; 500 g ai/ha): 30; Plant response rating, Ragweed ([16]; 125 g ai/ha): 0; Plant response rating, Ragweed ([16]; 500 g ai/ha): 0; Plant response rating, Wheat ([17]; 125 g ai/ha): 0; Plant response rating, Wheat ([17]; 500 g ai/ha): 0"
"O=C1NCC(c2cccc(Oc3ccc(F)cn3)c2)C1C(=O)Nc1cccc(F)c1F (single isomer, unassigned) [Compound 52]",40,60,70,80,70,90,90,90,40,80,70,90,30,40,30,40,60,70,40,60,"Plant response rating, Barnyardgrass (Flood) [5]: 40; Plant response rating, Rice (Flood) (rice (Oryza sativa)): 0; Plant response rating, Ducksalad (Flood) [11]: 100; Plant response rating, Corn (corn (Zea mays); 125 g ai/ha): 50; Plant response rating, Corn (corn (Zea mays); 500 g ai/ha): 70; Plant response rating, Ryegrass, Italian ([13]; 125 g ai/ha): 30; Plant response rating, Ryegrass, Italian ([13]; 500 g ai/ha): 60; Plant response rating, Sedge, Umbrella (Flood) [14]: 0; Plant response rating, Kochia (kochia (Kochia scoparia) [15]; 125 g ai/ha): 70; Plant response rating, Kochia (kochia (Kochia scoparia) [15]; 500 g ai/ha): 80; Plant response rating, Ragweed ([16]; 125 g ai/ha): 0; Plant response rating, Ragweed ([16]; 500 g ai/ha): 60; Plant response rating, Wheat ([17]; 125 g ai/ha): 0; Plant response rating, Wheat ([17]; 500 g ai/ha): 40"
O=C1NCC(c2cccc(OCC3CC3)c2)C1C(=O)Nc1ccc(F)cc1F (centres unmarked) [Compound 3],0,0,10,60,40,70,60,80,0,0,20,70,0,30,0,20,0,0,20,40,"Plant response rating, Corn (corn (Zea mays); 125 g ai/ha): 0; Plant response rating, Corn (corn (Zea mays); 500 g ai/ha): 20; Plant response rating, Ryegrass, Italian ([13]; 125 g ai/ha): 0; Plant response rating, Ryegrass, Italian ([13]; 500 g ai/ha): 30; Plant response rating, Kochia (kochia (Kochia scoparia) [18]; 125 g ai/ha): 0; Plant response rating, Kochia (kochia (Kochia scoparia) [18]; 500 g ai/ha): 40; Plant response rating, Kochia (kochia (Kochia scoparia) [15]; 125 g ai/ha): 0; Plant response rating, Kochia (kochia (Kochia scoparia) [15]; 500 g ai/ha): 20; Plant response rating, Ragweed ([16]; 125 g ai/ha): 0; Plant response rating, Ragweed ([16]; 500 g ai/ha): 0; Plant response rating, Wheat ([17]; 125 g ai/ha): 0; Plant response rating, Wheat ([17]; 500 g ai/ha): 20"
O=C1NCC(c2cccc(Cn3cccn3)c2)C1C(=O)Nc1ccc(F)cc1F (centres unmarked) [Compound 28],0,0,0,20,0,30,0,30,0,0,0,20,0,0,0,0,0,0,0,0,"Plant response rating, Corn (corn (Zea mays); 125 g ai/ha): 0; Plant response rating, Corn (corn (Zea mays); 500 g ai/ha): 0; Plant response rating, Ryegrass, Italian ([13]; 125 g ai/ha): 0; Plant response rating, Ryegrass, Italian ([13]; 500 g ai/ha): 0; Plant response rating, Kochia (kochia (Kochia scoparia) [18]; 125 g ai/ha): 0; Plant response rating, Kochia (kochia (Kochia scoparia) [18]; 500 g ai/ha): 0; Plant response rating, Kochia (kochia (Kochia scoparia) [15]; 125 g ai/ha): 0; Plant response rating, Kochia (kochia (Kochia scoparia) [15]; 500 g ai/ha): 0; Plant response rating, Ragweed ([16]; 125 g ai/ha): 0; Plant response rating, Ragweed ([16]; 500 g ai/ha): 0; Plant response rating, Wheat ([17]; 125 g ai/ha): 0; Plant response rating, Wheat ([17]; 500 g ai/ha): 0"
O=C1NCC(c2cccc(Cn3cccn3)c2)C1C(=O)Nc1ccccc1F (centres unmarked) [Compound 27],0,0,40,70,0,20,20,30,0,0,40,50,0,0,0,0,0,0,0,0,"Plant response rating, Corn (corn (Zea mays); 125 g ai/ha): 0; Plant response rating, Corn (corn (Zea mays); 500 g ai/ha): 0; Plant response rating, Ryegrass, Italian ([13]; 125 g ai/ha): 0; Plant response rating, Ryegrass, Italian ([13]; 500 g ai/ha): 0; Plant response rating, Kochia (kochia (Kochia scoparia) [18]; 125 g ai/ha): 0; Plant response rating, Kochia (kochia (Kochia scoparia) [18]; 500 g ai/ha): 0; Plant response rating, Kochia (kochia (Kochia scoparia) [15]; 125 g ai/ha): 0; Plant response rating, Kochia (kochia (Kochia scoparia) [15]; 500 g ai/ha): 0; Plant response rating, Ragweed ([16]; 125 g ai/ha): 0; Plant response rating, Ragweed ([16]; 500 g ai/ha): 0; Plant response rating, Wheat ([17]; 125 g ai/ha): 0; Plant response rating, Wheat ([17]; 500 g ai/ha): 0"
